Results from patent US20230263752A1, “VETERINARY COMPOSITIONS FOR THE TREATMENT AND/OR PREVENTION OF PROTOZOAN DISEASES AND METHODS OF PREPARATION THEREOF” (ADIFEED SP. Z O. O., priority 2020, published 2023).
Where “and” joins values, the source holds several entries; their conditions need not be identical. Identical values can stand only once.

Experiments:
Gregarina blattarum = test: in vitro protozoicidal test on gregarines isolated from cockroaches, in Ringer's solution; format: cell-based; conditions: for LD100: 100% mortality within 3 minutes
From the text: For in vitro tests of antiprotozoal activity of the composition five reference organisms representing taxonomic groups to which pathogenic protozoa belong were selected, i.e: • Amoeba proteus—Chaos diffluens—a protozoan of the order Euamoebida, belonging to fifth supergroup of the Amoebozoa, living in waters. • Paramecium caudatum—a slipper animalcule representing the Ciliata orachs, living in waters. • Gregarina blattarum—gregarine isolated from cockroaches, representing the phylum Apicomplexa, living in the digestive tracts or body cavities of invertebrates. • Euglena gracilis—a protozoan living in water, representing the flagellates—Mastigophora, family Euglenaceae. • Trichomonas hominis—a protozoan living in the human colon, representing the Trichomonadidae.
The gregarines were isolated from the cockroaches and, after being placed on a watch slide, were treated with the products at different concentrations in Ringer's solution. Each sample contained ten individuals.
The compositions, negative controls, and positive controls were dissolved in an aqueous solution of polysorbate 80 (0.05%) before application to a watch slide.
After this time, the reaction product was filtered through filter paper. […] Compositions I and II were then analysed for their antiprotozoal properties. […]
The tested preparations were dissolved in an aqueous solution of polysorbate 80 (0.05%) before being applied to a watch glass. […] Observation under a fluorescence microscope with phase contrast was carried out.

[1] = system: Trypanosoma cruzi and Leishmania chagasi; conditions: cited from earlier work
Trypanosoma cruzi = conditions: read-out: inhibitory effect on 50% of the population (IC50); cited from earlier work
[2] = system: Trypanosoma cruzi and different Leishmania species; conditions: cited from earlier work
Trichomonas hominis = test: in vitro protozoicidal test on watch glass, LD50/LD100; format: cell-based
Amoeba proteus = test: as above; format: cell-based
[3] = 100% mortality within 3 minutes

Q: With “copper carbonate [Copper carbonate solution]” as the compound, how does the LD100 (Gregarina blattarum) read?
A: The LD100 was 0.37%.

Q: Which IC50 [1] does the source give for `CC1CS(=O)(=O)CCN1/N=C/c1ccc([N+](=O)[O-])o1` (stereo not shown) [Nifurtimox] here?
A: Its IC50 is 0.3 to 0.4 mg/L.

Q: And the IC50 (Trypanosoma cruzi)?
A: The IC50 was 6 µM.

Q: For `O=C(Cn1ccnc1[N+](=O)[O-])NCc1ccccc1` [benznidazole], which “values obtained (in vitro antiprotozoal activity)” value [2] is on record?
A: Its value is 45.02 µg/mL.

Q: For `Cc1ncc([N+](=O)[O-])n1CCO` [M, metronidazole], which LD50 (Gregarina blattarum; 50% mortality within 3 minutes) is on record?
A: Its LD50 is 0.13% and 0.3%.

Q: And the LD100 (Gregarina blattarum)?
A: The LD100 was 0.3%.

Q: And the LD50 (Trichomonas hominis; 50% mortality within 3 minutes)?
A: Its LD50 is 0.05% and 0.08%.

Q: What about the LD100 (Trichomonas hominis; [3]) of the same compound?
A: Its LD100 is 0.1% and 0.15%.

Q: What about the LD50 (Amoeba proteus; 50% mortality within 3 minutes) of the same compound?
A: Its LD50 is 0.3%.

Q: What about the LD100 (Amoeba proteus; [3]) of the same compound?
A: Its LD100 is 0.5%.
